Experimental data taken from paper PMC12408683 (Archives of Toxicology, 2025).
Like-named read-outs stand apart in the source and are kept apart here.

Columns and labels:
HepG2 cells [1] = assay: Resazurin reduction assay (cytotoxicity) in HepG2 cells; details: for EC50: read-out: EC50 (cell viability)
HepG2 cells [2] = tested on: HepG2 cells
Protocol: (§1) The CBMN assay was performed according to the OECD test guideline #487. Therefore, 2 × 10^5 cells were seeded in 3.5 cm dishes and allowed to adhere for 24 h. […] After the 24 h treatment, the medium was discarded and the cells were incubated with fresh medium, containing 6 µg/mL cytochalasin B as cytokinesis inhibitor. The cells were then left to grow for 72 h, allowing for 1.5–2 × cell cycles. Subsequently, the cells were rinsed with PBS and fixed with ice-cold methanol for 10 min at –20 °C. Cells were washed and embedded with Vectashield® containing DAPI (Vector Labs, Burlingame, CA, USA). The samples were analysed with a Zeiss Axio Observer 7 microscope equipped with an Axiocam 305 mono and a 63 × oil immersion objective (plan-apochromat 63x/1.40 DIC M27) using ZEN Software 3.2. 500 binucleated cells per sample were analysed for micronuclei formation.
(§2) As benchmark response (BMR) for all concentration–response curves (adducts, micronuclei), a 2.0-fold increase vs. solvent control was used (BMC100, critical effect size = 1). The determined BMC100 and the corresponding upper and lower boundary (BMCU and BMCL, respectively) of the 90% confidence interval (CI) were used for potency comparison.

HepG2 cells [3] = details: for MN formation, increase (flow cytometry): 24 h + 72 h recovery
Protocol: DMSO served as solvent control, while MMC was used as a positive control. […] Following the recovery time, the cells were detached, harvested by centrifugation (300 g, 5 min), and washed with PBS. […] The fluorescent dye was then activated by photolysis (60 W lightbulb, 30 cm spacing) for 20 min before addition of 9 mL PBS to remove unbound dye. […] 1.5 × 10^4 cells were analysed using the BD FACSDiva software (BD Biosciences, Heidelberg, Germany).

male F344 gpt delta rats = tested on: male F344 gpt delta rats; design: method as in Suzuki et al. 2012a; details: top dose 200 mg ES/kg bw for 4 weeks; ref Suzuki et al. 2012a; cited from earlier work
HepaRG cells = tested on: HepaRG cells; design: method as in Le Hegarat et al. 2014; details: up to 2 mM ES for 24 h; ref Le Hegarat et al. 2014; cited from earlier work
HepG2-CYP1A2 cells = tested on: HepG2-CYP1A2 cells
Protocol: as §1, §2

female gpt delta mice = tested on: female gpt delta mice; design: method as in Suzuki et al. 2012b; details: ref Suzuki et al. 2012b; cited from earlier work
[4] = design: method as in Yang et al. 2021; details: PBPK modelling, dietary uptake 0.01 mg/kg bw and day; ref Yang et al. 2021; cited from earlier work
mice = tested on: mice; design: method as in Suzuki et al. 2012b; details: up to 300 mg/kg bw and day over 13 weeks; ref Suzuki et al. 2012b; cited from earlier work
[5] = endpoint MN (CBMN), BMR 2.0-fold increase
[6] = endpoint MN (CBMN), BMR 2.0-fold increase, 90% CI
[7] = range stated for both ES and 1′OH-ES
[8] = endpoint MN (FCM), BMR 2.0-fold increase, 90% CI

Compound: C=CC(O)c1ccc(OC)cc1 (stereo not drawn) [1′OH-ES, 1′-hydroxyestragole]
- cell viability (HepG2 cells [1]; 50 µM 1′OH-ES, 24 h treatment + 72 h recovery): above 70%
- EC50 (HepG2 cells [1]; 24 h): 43 µM
- EC50 (HepG2 cells [1]; 72 h): 27 µM
- MN induction vs solvent control (CBMN) (HepG2 cells [2]; 50 µM 1′OH-ES (top concentration)): roughly a twofold induction
- concentration at which the increase in MN starts (CBMN) (HepG2 cells [2]; 24 h + 72 h recovery): 5 µM
- BMC100 (HepG2 cells [2]; [5]): 32.0 µM
- BMCL (HepG2 cells [2]; [6]): 21.0 µM
- BMCU (HepG2 cells [2]; [6]): 106 µM
- BMC for clastogenic response vs BMC for DNA adduct formation (HepG2 cells [2]; [7]): 12–17 fold
- MN formation, increase (flow cytometry) (HepG2 cells [3]; 25 µM 1′OH-ES): twofold
- MN formation, increase (flow cytometry) (HepG2 cells [3]; 50 µM 1′OH-ES): 4.6 fold
- concentrations at which clastogenicity was observed (HepG2 cells [3]; CBMN and MN flow assay): ≥ 25 µM
- BMC100 (HepG2 cells [3]; endpoint MN (FCM), BMR 2.0-fold increase): 29.8 µM
- BMCL (HepG2 cells [3]; [8]): 21.1 µM
- BMCU (HepG2 cells [3]; [8]): 37.6 µM

Compound: C=CCc1ccc(OC)cc1 [ES, estragole]
- mutagenicity, increase vs. control (male F344 gpt delta rats): twofold
- DNA strand breaks (comet assay) outcome (HepaRG cells): negative outcome
- MN induction vs solvent control (CBMN) (HepG2-CYP1A2 cells; 2000 µM ES (top concentration)): roughly a twofold induction
- concentration at which the increase in MN starts (CBMN) (HepG2-CYP1A2 cells; 24 h + 72 h recovery): 500 µM
- concentrations at which clastogenicity was observed (HepG2-CYP1A2 cells; CBMN and MN flow assay): ≥ 1000 µM
- BMC100 (HepG2-CYP1A2 cells; [5]): 1116 µM
- BMCL (HepG2-CYP1A2 cells; [6]): 555 µM
- BMCU (HepG2-CYP1A2 cells; [6]): 1755 µM
- BMC for clastogenic response vs BMC for DNA adduct formation (HepG2-CYP1A2 cells; [7]): 12–17 fold
- dose with significant increase in mutation frequency (female gpt delta mice): 75 mg/kg bw
- predicted ES concentration in liver venous blood [4]: 0.01 µM
- clastogenicity (mice): clastogenicity was not detected
